The text below walks through data of paper PMC12222587, “A2B adenosine receptor-triggered intracellular calcium mobilization: Cell type-dependent involvement of Gi, Gq, Gs proteins and protein kinase C” (Purinergic Signalling, 2025).

Experiment [1] deals with endogenous adenosine receptors. Put plainly: cAMP accumulation, MDA-MB-231 cells expressing endogenous adenosine receptors. It is filed as cell-based, human. Here is the method: (§1) HEK293, T24 bladder cancer and MDA-MB-231 breast cell lines were cultured in DMEM medium containing 10% fetal bovine serum, 100 units/ml penicillin, 100 μg/ml streptomycin, and 2 μmol/ml glutamine. For the assay of 3′,5′-cyclic adenosine monophosphate (cAMP), cells were plated in 96-well (4 × 10^4 cells/well) clear plates in 100 μl of medium overnight. Cell culture medium was then replaced with 80 µl HBSS buffer containing 20 mM HEPES, phosphodiesterase inhibitor rolipram (10 μM), and 3 units/ml adenosine deaminase (Worthington Biochemical, Lakewood, NJ, USA) for 30 min followed by agonist addition to the mixture, which was then incubated for 20 min. The treatment of YM or FR was 20 min before agonist addition.
A general note: Cyclic AMP is a second messenger, typically raised through Gs and lowered through Gi signalling.

A further experiment concerns the target T1, A2BAR (Homo sapiens, UniProt P29275).
T1 sequence (P29275 1-332): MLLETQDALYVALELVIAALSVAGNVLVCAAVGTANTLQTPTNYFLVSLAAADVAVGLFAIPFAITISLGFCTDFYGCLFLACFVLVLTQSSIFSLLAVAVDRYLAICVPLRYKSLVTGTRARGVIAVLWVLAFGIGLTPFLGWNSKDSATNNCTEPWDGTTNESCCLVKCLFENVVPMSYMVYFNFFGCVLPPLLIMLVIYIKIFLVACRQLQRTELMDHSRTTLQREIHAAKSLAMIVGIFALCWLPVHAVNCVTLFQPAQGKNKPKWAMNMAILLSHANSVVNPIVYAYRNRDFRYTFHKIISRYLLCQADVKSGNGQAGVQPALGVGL
Put plainly: Intracellular calcium mobilization, T24 bladder cancer cells, native A2BAR (NECA). It is filed as cell-based. Conditions: T24 cells; for Effect on native A2BAR (NECA)-triggered calcium mobilization: YM 300 nM, FR 300 nM, PTX 200 ng/ml, CTX 500 ng/ml overnight, other inhibitors 20 min before NECA. For orientation: Calcium flux is commonly read through the fluorescence of an indicator in the cells.

The target of experiment [2] is T2, P2Y1R (Homo sapiens, UniProt P47900). Put plainly: Intracellular calcium mobilization, T24 bladder cancer cells, native P2Y1R (MRS2365). Conditions: for Effect on native P2Y1R (MRS2365)-triggered calcium mobilization: YM 300 nM, FR 300 nM, PTX 200 ng/ml overnight. It is filed as cell-based.
A further experiment concerns the target β2-adrenergic receptor (Homo sapiens, UniProt P07550). Put plainly: Intracellular calcium mobilization, T24 bladder cancer cells, endogenous β2-adrenergic receptor. The format is cell-based. Conditions: T24 cells; for Effect on formoterol-induced calcium mobilization (β2-adrenergic receptor): PTX 200 ng/ml, CTX 500 ng/ml.
In a further experiment the target is T3, A2AAR (Homo sapiens, UniProt P29274).
T3 construct: host or cells: HEK293
Put plainly: cAMP accumulation, HEK293 cells, A2AAR-mediated stimulation (CGS21680). It is filed as cell-based. Here is the method:
as §1

Experiment [3] concerns P2Y1R. Conditions: 1321N1 astrocytoma (P2Y1-overexpressing); ref Gao and Jacobson, 2017 [29]; cited from earlier work.
In experiment [4] the target is T4, A1AR (Homo sapiens, UniProt P30542).
T4 construct: expressed in transfected cells
T4 sequence (P30542 1-326): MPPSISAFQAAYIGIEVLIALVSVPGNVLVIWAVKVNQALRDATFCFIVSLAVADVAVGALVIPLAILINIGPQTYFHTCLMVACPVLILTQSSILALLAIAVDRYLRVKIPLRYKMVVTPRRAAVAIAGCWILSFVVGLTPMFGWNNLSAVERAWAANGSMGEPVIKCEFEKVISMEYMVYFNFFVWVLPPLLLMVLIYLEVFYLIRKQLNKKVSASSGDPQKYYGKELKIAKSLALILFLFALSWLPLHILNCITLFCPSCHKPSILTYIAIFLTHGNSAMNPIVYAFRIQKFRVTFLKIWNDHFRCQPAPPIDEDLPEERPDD
Put plainly: Intracellular calcium mobilization, HEK293 cells expressing recombinant A1AR (CCPA). The format is cell-based. Conditions: for Effect on A1AR (CCPA)-mediated calcium mobilization: HEK293 cells overexpressing A1AR, Gq/11 siRNA 250 nM, PTX 200 ng/ml overnight, FR, YM 20 min before agonist.

Experiment [5] relates to A1AR. Put plainly: Calcium increase, CHO cells expressing recombinant A1AR (CCPA). The format is cell-based. Conditions: recombinant A1 receptor, CCPA 1 µM, read-out: IC50 in inhibiting the effect of CCPA (Ca2+ increase).
The test system of a further experiment is M2 muscarinic receptor. Put plainly: Calcium increase, CHO cells expressing recombinant M2 muscarinic receptor (carbachol). It is filed as cell-based. Conditions: carbachol 10 µM, read-out: IC50 in inhibiting the effect of carbachol (Ca2+ increase).
Experiment [6] has as its target T4, A1AR. Put plainly: cAMP accumulation, HEK293 cells, A1AR-mediated inhibition of forskolin-stimulated cAMP (CCPA). It is filed as cell-based. Here is the method:
as §1

The target in experiment [7] is T2, P2Y1R. Put plainly: Intracellular calcium mobilization, HEK293 cells, native P2Y1R (MRS2365). It is filed as cell-based. Conditions: for Effect on P2Y1R (MRS2365)-mediated calcium mobilization: Gq/11 siRNA 250 nM, PTX 200 ng/ml overnight, FR, YM 20 min before agonist.
Another experiment concerns LPA receptor. Put plainly: Intracellular calcium mobilization, HEK293 cells, endogenous LPA receptor. It is filed as cell-based, human.
A further experiment concerns HMC-1 cells. Conditions: HMC-1 cells; ref Feoktistov et al., 1995 [30]; cited from earlier work.
Experiment [8] deals with A1AR. Conditions: FR 100 nM; cited from earlier work.
Where [9] appears, read: GO 20 min, then PMA 20 min before agonist.

Entries after “also recorded” stand apart in the source; their conditions may differ. *1 amine or outer side, *2 acyl side, *3 side chain or, on linkers, in order; H or OH if unused. Where a SMILES comes first, the peptide text is derived from it. Bridges are numbered along the chain shown (N, C = ends). [ ]: non-standard residue; d: D form. X2 = CC(=O)NC(C(=O)OC(C(C)C)C(N[*:1])C(=O)[*:2])C(O)C(C)C; PhLac = O=C(O)[CH](O)Cc1ccccc1; NMeT = CN[CH](C(=O)O)[CH](C)O; NMeA = CN[CH](C)C(=O)O; NMeDha = C=C(NC)C(=O)O

T2 sequence (P47900 whole entry): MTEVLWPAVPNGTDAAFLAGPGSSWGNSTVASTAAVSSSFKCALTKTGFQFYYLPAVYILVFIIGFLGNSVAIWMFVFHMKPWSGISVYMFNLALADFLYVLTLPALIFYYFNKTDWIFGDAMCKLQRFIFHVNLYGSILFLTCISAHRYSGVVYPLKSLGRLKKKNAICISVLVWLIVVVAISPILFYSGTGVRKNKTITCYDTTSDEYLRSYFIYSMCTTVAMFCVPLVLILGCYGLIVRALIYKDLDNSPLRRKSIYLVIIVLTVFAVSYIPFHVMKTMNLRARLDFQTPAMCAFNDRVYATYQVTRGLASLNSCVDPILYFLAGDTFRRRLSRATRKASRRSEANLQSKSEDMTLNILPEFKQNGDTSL
T3 sequence (P29274 whole entry): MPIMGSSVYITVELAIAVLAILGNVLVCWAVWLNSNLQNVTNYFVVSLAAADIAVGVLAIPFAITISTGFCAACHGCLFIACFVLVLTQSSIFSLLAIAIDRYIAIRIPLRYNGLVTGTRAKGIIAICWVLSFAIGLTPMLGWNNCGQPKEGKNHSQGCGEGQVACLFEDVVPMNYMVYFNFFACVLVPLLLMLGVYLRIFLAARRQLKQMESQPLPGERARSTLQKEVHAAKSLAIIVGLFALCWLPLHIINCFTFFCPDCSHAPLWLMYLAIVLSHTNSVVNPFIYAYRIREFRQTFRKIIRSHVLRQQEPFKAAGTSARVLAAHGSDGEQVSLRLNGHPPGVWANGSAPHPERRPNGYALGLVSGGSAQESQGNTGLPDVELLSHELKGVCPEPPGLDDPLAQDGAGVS

As for `CCNC(=O)[C@H]1O[C@@H](n2cnc3c(N)nc(NCCc4ccc(CCC(=O)O)cc4)nc32)[C@H](O)[C@@H]1O` [CGS21680], the half-maximal effective concentration (EC50) (as a rule, the concentration needed to bring the measured effect to its halfway point) in [1] was 2240 ± 850 nM.

Regarding `COc1ccc2c(c1)c(C1=C(c3c[nH]c4ccccc34)C(=O)NC1=O)cn2CCCN(C)C` [GO], at A2BAR (setting [9]), the “Effect of pretreatment on the PMA effect at A2BAR-triggered Ca2+ increase” value is listed as “eliminated the effect of PMA”. For the same compound, at P2Y1R [2] (setting [9]), the “Effect of pretreatment on the PMA effect at P2Y1R-triggered Ca2+ increase” value is on record as “eliminated the effect of PMA”. For the same compound, on P2Y1R [2], the “Effect on native P2Y1R (MRS2365)-triggered calcium mobilization” value was “significantly enhanced”.

For `CSc1nc(N)c2ncn([C@H]3[C@H](O)[C@H](O)[C@]4(COP(=O)(O)OP(=O)(O)O)C[C@H]34)c2n1` [MRS2365], the EC50 on P2Y1R [2] (absence of PTX) is 1.38 ± 0.26 nM.

For `CCNC(=O)[C@H]1O[C@@H](n2cnc3c(N)ncnc32)[C@H](O)[C@@H]1O` [NECA, adenosine-5′-N-ethyluronamide], in [1], the half-maximal effective concentration (EC50) amounted to 73.1 ± 18.2 nM.

`CCCCCCCCCCCCCC(=O)O[C@@H]1[C@@H](C)[C@@]2(O)[C@@H](C=C(CO)C[C@]3(O)C(=O)C(C)=C[C@@H]23)[C@@H]2C(C)(C)[C@]12OC(C)=O` [PMA, phorbol 12-myristate 13-acetate]: the “Effect on native A2BAR (NECA)-triggered calcium mobilization” value on A2BAR was “partially diminished; also recorded: PMA partially sensitive (8)”. Also, the “Effect on isoproterenol-induced calcium mobilization (β2-adrenergic receptor)” value at β2-adrenergic receptor (FR 300 nM, PMA 1 µM) is reported as “completely diminished”. The “Effect on formoterol-induced calcium mobilization (β2-adrenergic receptor)” value on β2-adrenergic receptor (FR 300 nM, YM 1 µM, PMA 1 µM) is on record as “completely diminished; also recorded: PMA completely sensitive (8)”. The “Effect on native P2Y1R (MRS2365)-triggered calcium mobilization” value on P2Y1R [2] is given as “completely eliminated”.

For `COc1ccc2c(c1)CC[C@@H]1[C@@H]2CC[C@]2(C)[C@@H](NCCCCCCN3C(=O)C=CC3=O)CC[C@@H]12` [U73122], the “Effect on native A2BAR (NECA)-triggered calcium mobilization” value on A2BAR is on record as “completely inhibited”.

Regarding `C=C1C(=O)NC(C)C(=O)N(C)C(C)C(=O)NC(C(OC(=O)C(NC(C)=O)C(O)C(C)C)C(C)C)C(=O)N(C)C(C(C)OC)C(=O)OC(C)C(NC(C)=O)C(=O)OC(Cc2ccccc2)C(=O)N1C` (stereo not shown) [YM, YM254890] (Ac-T[PhLac][NMeDha]A[NMeA][X2][NMeT](Me); ester 1-C; configuration not given here), the “Effect on A2AAR-mediated stimulation of cAMP accumulation” value at A2AAR was “did not affect”. In the experiment on P2Y1R [3], the “Sensitivity of P2Y1R calcium mobilization to modulator” value is given as “YM sensitive”. Further, the “Effect on native A2BAR (NECA)-triggered calcium mobilization” value on A2BAR was “little if any effect; also recorded: FR and YM insensitive (4); Gαq/11 siRNA insensitive (4)”. Besides, the “Effect on formoterol-induced calcium mobilization (β2-adrenergic receptor)” value on β2-adrenergic receptor (FR 300 nM, YM 1 µM, PMA 1 µM) is recorded as “YM – partially sensitive (6)”. The “Inhibition of the maximum effect (Emax) of formoterol, calcium mobilization” value on β2-adrenergic receptor (YM 1 µM) is listed as 78%. For the same compound, the “Effect on A1AR (CCPA)-mediated calcium mobilization” value on A1AR [4] is “inhibited; also recorded: YM and FR – fully sensitive (2)”. For the same compound, the concentration for half-maximal inhibition (IC50) (in general, the midpoint of a concentration-inhibition curve) at A1AR [4] (HEK293 cells, overexpressed A1AR, agonist CCPA 1 µM, read-out: IC50 for inhibition of A1AR-mediated calcium mobilization) was 12.9 ± 2.52 nM; in the experiment on A1AR [5] it was 11.6 nM; with M2 muscarinic receptor, 9.53 nM; at P2Y1R [7] (agonist MRS2365 1 µM, read-out: IC50 to inhibit P2Y1R-mediated calcium mobilization) it was 12.8 ± 4.1 nM. In addition, the “Effect on A1AR-mediated inhibition of cAMP accumulation” value on A1AR [6] is “did not affect”. The “Effect on P2Y1R (MRS2365)-mediated calcium mobilization” value on P2Y1R [7] is reported as “inhibited; also recorded: fully sensitive”. For the same compound, the “Effect on native P2Y1R (MRS2365)-triggered calcium mobilization” value at P2Y1R [2] is “completely inhibited; also recorded: YM – fully sensitive (4)”. For the same compound, the “Effect on LPA-induced intracellular calcium mobilization” value in the experiment with LPA receptor (YM 300 nM) is listed as “completely inhibited”.

Regarding Pertussis toxin [PTX], in the experiment with HMC-1 cells, the “Sensitivity of NECA-induced Ca2+ increase to toxin” value was “^b NECA-induced Ca^2+ increase in HMC-1 cells was insensitive to CTX and PTX, Feoktistov et al., 1995 [30]”. In the experiment on P2Y1R [3], the “Sensitivity of P2Y1R calcium mobilization to modulator” value is listed as “PTX insensitive”. The “Effect on native A2BAR (NECA)-triggered calcium mobilization” value in the experiment with A2BAR is “diminished; also recorded: PTX sensitive (5)”. For the same compound, the “Effect on formoterol-induced calcium mobilization (β2-adrenergic receptor)” value with β2-adrenergic receptor (FR 300 nM, YM 1 µM, PMA 1 µM) is “did not produce significant attenuation; also recorded: PTX not sensitive (6)”. Moreover, in the experiment with A1AR [4], the “Effect on A1AR (CCPA)-mediated calcium mobilization” value was “completely inhibited; also recorded: PTX sensitive (1)”. Moreover, the “Effect on A1AR-mediated Akt1/2/3 phosphorylation” value in the experiment on A1AR [8] was “completely inhibited”. In addition, the “Effect on P2Y1R (MRS2365)-mediated calcium mobilization” value in the experiment with P2Y1R [7] is on record as “no effect; also recorded: PTX insensitive (1)”. The “Effect on native P2Y1R (MRS2365)-triggered calcium mobilization” value with P2Y1R [2] is given as “no effect; also recorded: PTX insensitive (5)”.

In the case of lysophosphatidic acid [LPA], the EC50 in the experiment on LPA receptor (endogenous LPA receptor, read-out: EC50 of induced intracellular calcium mobilization) worked out at 4.59 µM.
